# Results published in paper PMC3367765 (Pflugers Archiv, 2012).
# Read-outs that look alike come from different tables or passages of the source.
# B1: GST-C60 protein expressed from pDEST-26 vector (domain or fragment, rat, UniProt P19024 543-602, looked up)
# chain: RKVSCSKASFCKTGGSLESSDSIRRGSCPLEKCHLKAKSNVDLRRSLYALCLDTSRETDL
# Tests used:
# Kvβ3 = biological target: T1, Kvβ3 (Mus musculus, UniProt F6YMI4); assay: fluorescence titration; format: binding
# T1 sequence (F6YMI4 1-404): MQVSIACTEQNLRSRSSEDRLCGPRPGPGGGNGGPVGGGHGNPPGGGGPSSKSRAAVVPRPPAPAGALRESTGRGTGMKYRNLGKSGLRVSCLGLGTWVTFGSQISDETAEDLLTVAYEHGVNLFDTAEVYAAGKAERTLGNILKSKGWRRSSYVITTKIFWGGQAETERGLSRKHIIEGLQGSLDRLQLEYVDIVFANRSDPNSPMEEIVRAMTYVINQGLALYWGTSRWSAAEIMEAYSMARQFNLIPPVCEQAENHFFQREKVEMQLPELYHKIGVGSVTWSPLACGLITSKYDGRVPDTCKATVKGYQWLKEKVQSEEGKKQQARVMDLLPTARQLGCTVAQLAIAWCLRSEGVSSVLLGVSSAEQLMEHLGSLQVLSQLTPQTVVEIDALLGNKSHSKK
# [1] = biological target: T2, Kvβ2 (AKR part, amino acid residues 39-367) (UniProt P62483 39-367); assay: pull-down
# T2 sequence (looked up): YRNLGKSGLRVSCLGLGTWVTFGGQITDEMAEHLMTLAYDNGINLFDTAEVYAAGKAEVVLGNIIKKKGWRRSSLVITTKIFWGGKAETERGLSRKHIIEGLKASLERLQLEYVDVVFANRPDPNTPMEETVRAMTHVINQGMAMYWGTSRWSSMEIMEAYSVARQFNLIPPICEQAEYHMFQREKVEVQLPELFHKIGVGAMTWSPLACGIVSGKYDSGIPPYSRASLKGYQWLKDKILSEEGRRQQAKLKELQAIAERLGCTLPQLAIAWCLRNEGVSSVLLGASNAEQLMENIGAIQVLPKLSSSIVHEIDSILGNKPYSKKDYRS
# [2] = biological target: T2, Kvβ2 (AKR part, amino acid residues …); assay: pull-down; remark: listed apart in the source
Molecule,Kd (Kvβ3),Kd [1],Kd [2]
NC(=O)C1=CN([C@@H]2O[C@H](COP(=O)(O)OP(=O)(O)OC[C@H]3O[C@@H](n4cnc5c(N)ncnc54)[C@H](OP(=O)(O)O)[C@@H]3O)[C@@H](O)[C@H]2O)C=CC1 [NADPH],5.6 ± 0.26 µM,–,–
NC(=O)c1ccc[n+]([C@@H]2O[C@H](COP(=O)(O)OP(=O)(O)OC[C@H]3O[C@@H](n4cnc5c(N)ncnc54)[C@H](OP(=O)(O)O)[C@@H]3O)[C@@H](O)[C@H]2O)c1 [NADP^+],38 ± 9 µM,–,–
B1,–,9.9 ± 1.7 µM,5.2 ± 0.8 µM
